Measurements taken from patent US20170275270A1, “BENZYL SUBSTITUTED INDAZOLES” (Bayer Pharma Aktiengesellschaft, priority 2014, published 2017).
Counter-ions that a name gives are not always drawn. Like-named read-outs stand apart in the source and are kept apart here.

What was measured:
[1] = target: T1, catalytic domain of human Bub1 (amino acids 704-1085) (Homo sapiens, UniProt O43683); test: Bub1 kinase assay (TR-FRET); format: biochemical
T1 construct: catalytic domain of human Bub1 (amino acids 704-1085); His6 (N); made in house; host or cells: Hi5 insect cells
In short: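 TR-FRET read-out (Eu-anti-mouse IgG/anti-phosphoserine antibody to streptavidin-XL665 on biotinylated peptide) after EDTA stop and 1 h complex formation at 22° C. Kinase reaction ran 60 min at 22° C with 1:3.4 serial dilutions from 2 mM DMSO stocks. IC50 from 4-parameter logistic fit of normalized inhibition.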

Bub1 = Bub1 (Homo sapiens, UniProt O43683); test: Formation-Assay: phosphorylation status of histone 2A by inhibition of kinase activity of Bub1; format: cell-based; details: Biological Assay 4.1: H2A Formation IC50, co-treatment with Nocodazole 1 μg/ml, 16 h
Protocol: Biological Assay 4.1: Formation-Assay
Cell-Based Mechanistic Assay: Changes of Phosphorylation Status of Histone 2A by Inhibition of Kinase Activity of Bub1
This assay determines the suppression of histone 2A phosphorylation by a Bub1 kinase inhibitor during co-treatment with Nocodazole. 25000 cells (cells were ordered from ATCC) were seeded in 96 well plate for 5 h at 37° C. Cells were treated with Nocodazole (1 μg/ml) and varying concentrations (between 3 nM and 10 μM) of test compounds for 16 h. Cells were fixed (20 min, Fixing solution R&D), washed three times with PBS and blocked with Odyssey blocking buffer before incubating with the primary antibody against phosphorylated H2A (5 μg/ml ABIN482721) overnight at 2-8° C. After washing, secondary IRDye-labeled antibody mix with cell stains was added for 1 h and washed again with PBS. Plates were scanned with LiCor Odyssey Infrared Imager CLx at 800 nm for P-H2A and at 700 nm for cell stains Draq5/Sapphire. The quotient of 800 nm and 700 nm for Nocodazole only treated cells was set as 100% and the quotient of 800 nm and 700 nm of untreated cells was set as 0%.
Histone H2A is an immediate intracellular substrate of Bub1 kinase. Determination of the phosphorylation status of Histone H2A provides a direct measure of the intracellular activity of Bub1 kinase.

HeLa = test: Proliferation assay (HeLa cell line); details: Homo sapiens, 96 h, read-out: Biological Assay 2: Proliferation assay (HeLa cell line) median IC50;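 note: crystal violet staining of cell number, scaled between a plate stained before dosing (0%) and cells left untreated (100%), compounds tested at 0.001-10 µM, IC50 via 4-parameter fit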
[2] = system: HeLa human cervical tumor cells; test: Proliferation assay (HeLa+Paclitaxel); details: read-out: Biological Assay 3: HeLa + Paclitaxel IC50, 3 nM paclitaxel, crystal violet;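 note: compounds at 0.001-10 µM added 4 h after paclitaxel, 92 h exposure, absorbance normalized to zero-point plate (0%) and untreated cells (100%), IC50 from 4-parameter fit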
[3] = Biological Assay 1: Bub1 kinase assay median IC50, 10 μM ATP
[4] = 10 μM ATP, read-out: Biological Assay 1: Bub1 kinase assay median IC50

Bub1, sequence (O43683 whole entry): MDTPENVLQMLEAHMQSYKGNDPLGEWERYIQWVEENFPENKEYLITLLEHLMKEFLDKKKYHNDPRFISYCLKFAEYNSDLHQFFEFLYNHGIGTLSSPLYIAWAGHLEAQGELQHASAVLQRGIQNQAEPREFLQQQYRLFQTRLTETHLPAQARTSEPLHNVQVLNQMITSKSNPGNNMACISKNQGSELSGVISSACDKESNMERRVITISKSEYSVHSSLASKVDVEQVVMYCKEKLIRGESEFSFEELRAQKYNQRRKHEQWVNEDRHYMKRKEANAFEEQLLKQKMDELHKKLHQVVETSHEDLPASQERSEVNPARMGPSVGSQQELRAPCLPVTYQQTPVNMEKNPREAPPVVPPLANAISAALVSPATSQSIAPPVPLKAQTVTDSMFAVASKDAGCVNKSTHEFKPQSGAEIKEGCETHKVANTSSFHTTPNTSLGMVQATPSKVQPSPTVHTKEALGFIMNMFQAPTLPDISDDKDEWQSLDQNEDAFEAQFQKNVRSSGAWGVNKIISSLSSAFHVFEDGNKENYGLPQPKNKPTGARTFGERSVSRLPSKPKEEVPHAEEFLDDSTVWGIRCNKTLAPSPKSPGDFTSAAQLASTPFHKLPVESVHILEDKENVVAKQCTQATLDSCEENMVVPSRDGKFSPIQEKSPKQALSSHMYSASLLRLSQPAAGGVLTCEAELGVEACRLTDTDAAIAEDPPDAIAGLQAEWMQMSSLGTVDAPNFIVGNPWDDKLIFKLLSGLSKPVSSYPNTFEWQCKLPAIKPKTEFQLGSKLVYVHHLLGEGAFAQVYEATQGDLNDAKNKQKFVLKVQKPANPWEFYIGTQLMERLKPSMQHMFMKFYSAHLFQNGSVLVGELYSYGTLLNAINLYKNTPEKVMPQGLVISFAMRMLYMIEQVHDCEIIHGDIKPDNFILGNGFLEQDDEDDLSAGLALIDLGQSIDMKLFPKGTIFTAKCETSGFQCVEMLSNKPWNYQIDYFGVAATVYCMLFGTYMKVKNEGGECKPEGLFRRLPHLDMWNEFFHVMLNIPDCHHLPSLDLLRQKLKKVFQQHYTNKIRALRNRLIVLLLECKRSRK
T1 sequence (O43683 704-1085): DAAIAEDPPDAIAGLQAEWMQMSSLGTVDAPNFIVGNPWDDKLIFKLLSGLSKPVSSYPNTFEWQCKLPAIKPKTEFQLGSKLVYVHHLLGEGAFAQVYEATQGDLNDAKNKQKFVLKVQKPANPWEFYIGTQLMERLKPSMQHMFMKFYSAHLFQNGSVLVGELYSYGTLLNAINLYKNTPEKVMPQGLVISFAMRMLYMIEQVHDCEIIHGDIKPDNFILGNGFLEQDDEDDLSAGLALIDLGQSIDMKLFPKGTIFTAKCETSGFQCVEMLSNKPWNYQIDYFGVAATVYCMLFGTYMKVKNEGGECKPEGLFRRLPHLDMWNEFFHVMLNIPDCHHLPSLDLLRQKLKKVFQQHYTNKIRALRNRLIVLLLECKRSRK

CCOc1cc(F)c(Cn2nc(-c3ncc(CCS(C)(=O)=O)c(Nc4ccncc4)n3)c3ccccc32)c(F)c1 [Example 2-3-1, 2-[1-(4-ethoxy-2,6-difluorobenzyl)-1H-indazol-3-yl]-5-[2-(methylsulfonyl)ethyl]-N-(eparate-4-yl)pyrimidin-4-amine]
IC50 [1, 3]: 6.1 nM
IC50 (Bub1): 2300 nM
IC50 (HeLa): 3500 nM

CCOc1cc(F)c(Cn2nc(-c3ncc(CCCS(C)(=O)=O)c(Nc4ccncc4)n3)c3ccccc32)c(F)c1 [Example 2-3-2, 2-[1-(4-ethoxy-2,6-difluorobenzyl)-1H-indazol-3-yl]-5-[3-(methylsulfonyl)propyl]-N-(pyridin-4-yl)pyrimidin-4-amine]
IC50 [1, 3]: 9 nM
IC50 (Bub1): 990 nM
IC50 (HeLa): 2800 nM

CC(=O)Nc1cc(Nc2nc(-c3nn(Cc4c(F)cc(OCCO)cc4F)c4ccccc34)nc3c2CCC3)ccn1 [Example 2-4-6, N-{4-[(2-{1-[2,6-difluoro-4-(2-hydroxyethoxy)benzyl]-1H-indazol-3-yl}-6,7-dihydro-5H-cyclopenta[d]pyrimidin-4-yl)amino]pyridin-2-yl}acetamide]
IC50 [1, 3]: 9.9 nM
IC50 (Bub1): 130 nM
IC50 (HeLa): 2100 nM

Cc1nccc(Nc2nc(-c3nn(Cc4c(F)cc(OCCO)cc4F)c4ccccc34)ncc2C2CCN(CC(F)F)CC2)n1 [Example 2-6-17, 2-{4-[(3-{5-[1-(2,2-difluoroethyl)piperidin-4-yl]-4-[(2-methylpyrimidin-4-yl)amino]pyrimidin-2-yl}-1H-indazol-1-yl)methyl]-3,5-difluorophenoxy} ethanol]
IC50 [1, 3]: 58 nM
IC50 (Bub1): 6 nM
IC50 (HeLa): 6800 nM

CCOc1cc(F)c(Cn2nc(-c3ncc(C4CNC4)c(Nc4ccncc4)n3)c3ccccc32)c(F)c1 [Example 2-9-1, 5-(azetidin-3-yl)-2-[1-(4-ethoxy-2,6-difluorobenzyl)-1H-indazol-3-yl]-N-(pyridin-4-yl)pyrimidin-4-amine, salt with hydrochloric acid]
IC50 [1, 4]: 9.4 nM
IC50 (Bub1): 17 nM
IC50 (HeLa): 1300 nM

CCOc1cc(F)c(Cn2nc(-c3nc(C)cc(Nc4ccncc4C(N)=O)n3)c3ccccc32)c(F)c1 [Example 2-10-2, 4-({2-[1-(4-ethoxy-2,6-difluorobenzyl)-1H-indazol-3-yl]-6-methylpyrimidin-4-yl}amino)pyridine-3-carboxamide]
IC50 [1, 4]: 5.5 nM
IC50 (Bub1): 140 nM

CCOc1cc(F)c(Cn2nc(-c3ncc(C4CCN(CC(F)F)CC4)c(Nc4ccncc4OC)n3)c3ccccc32)c(F)c1 [Example 2-11-5, 5-[1-(2,2-difluoroethyl)piper-idin-4-yl]-2-[1-(4-ethoxy-2,6-difluorobenzyl)-1H-indazol-3-yl]-N-(3-methoxypyridin-4-yl)pyrimidin-4-amine]
IC50 [1, 3]: 23 nM
IC50 (Bub1): 8.3 nM
IC50 (HeLa): 1700 nM

CCOc1cc(F)c(Cn2nc(-c3nc(Nc4cc(C)ncc4C)cc(C(F)(F)F)n3)c3ccccc32)c(F)c1 [Example 2-12-82, N-(2,5-dimethylpyridin-4-yl)-2-[1-(4-ethoxy-2,6-difluorobenzyl)-1H-indazol-3-yl]-6-(trifluoromethyl)pyr-imidin-4-amine]
IC50 [1, 4]: > 20000 nM
IC50 (Bub1): 30 nM

CCOc1cc(F)c(Cn2nc(-c3nc(Nc4ccncn4)cc(C4CCOCC4)n3)c3ccccc32)c(F)c1 [Example 2-12-92, 2-[1-(4-ethoxy-2,6-difluorobenzyl)-1H-indazol-3-yl]-N-(pyrimidin-4-yl)-6-(tetrahydro-2H-pyran-4-yl)pyrimidin-4-amine]
IC50 [1, 3]: 20 nM
IC50 (HeLa): 2700 nM
IC50 [2]: 280 nM

CCOc1cc(F)c(Cn2nc(-c3nc(Nc4ccnc(C)n4)cc(-c4ccn(C)n4)n3)c3ccccc32)c(F)c1 [Example 2-12-93, 2-[1-(4-ethoxy-2,6-difluorobenzyl)-1H-indazol-3-yl]-6-(1-methyl-1H-pyrazol-3-yl)-N-(2-methylpyrimidin-4-yl)pyrimidin-4-amine]
IC50 [1, 3]: 30 nM
IC50 (HeLa): > 10000 nM
IC50 [2]: > 10000 nM

CCOc1cc(F)c(Cn2nc(-c3nc(Nc4ccncc4OC)cc(-c4ccn(C)n4)n3)c3ccccc32)c(F)c1 [Example 2-12-94, 2-[1-(4-ethoxy-2,6-difluorobenzyl)-1H-indazol-3-yl]-N-(3-methoxypyridin-4-yl)-6-(1-methyl-1H-pyrazol-3-yl)pyrimidin-4-amine]
IC50 [1, 3]: 9.7 nM
IC50 (HeLa): 3900 nM
IC50 [2]: 2300 nM

CCOc1cc(F)c(Cn2nc(-c3nc(Nc4ccncn4)cc(-c4nccs4)n3)c3ccccc32)c(F)c1 [Example 2-12-95, 2-[1-(4-ethoxy-2,6-difluorobenzyl)-1H-indazol-3-yl]-N-(pyrimidin-4-yl)-6-(1,3-thiazol-2-yl)pyrimidin-4-amine]
IC50 [1, 3]: 26 nM
IC50 (HeLa): > 10000 nM
IC50 [2]: 9800 nM

CCOc1cc(F)c(Cn2nc(-c3nc4c(c(Nc5ccncc5C(F)(F)F)n3)CCC4)c3ccccc32)c(F)c1 [Example 2-14-3, 2-[1-(4-ethoxy-2,6-difluorobenzyl)-1H-indazol-3-yl]-N-[3-(trifluoromethyl)pyridin-4-yl]-6,7-dihydro-5H-cyclopenta[d]pyrimidin-4-amine]
IC50 [1, 4]: 5.2 nM
IC50 (HeLa): 3000 nM
IC50 [2]: 250 nM

CCOc1cc(F)c(Cn2nc(-c3nc4c(c(Nc5ccncc5C(=O)O)n3)CCC4)c3ccccc32)c(F)c1 [Example 2-14-9, 4-({2-[1-(4-ethoxy-2,6-difluorobenzyl)-1H-indazol-3-yl]-6,7-dihydro-5H-cyclopenta[d]pyrimidin-4-yl}amino)pyridine-3-carboxylic acid]
IC50 [1, 3]: 66 nM
IC50 (HeLa): > 10000 nM
IC50 [2]: > 10000 nM

CCOc1cc(F)c(Cn2nc(-c3nc4c(c(Nc5ccncc5)n3)CN(CC)CC4)c3ccccc32)c(F)c1 [Example 2-15-1, 2-[1-(4-ethoxy-2,6-difluorobenzyl)-1H-indazol-3-yl]-6-ethyl-N-(pyridin-4-yl)-5,6,7,8-tetrahydropyrido[4,3-d]pyrimidin-4-amine]
IC50 [1, 3]: 8.6 nM
IC50 (HeLa): > 10000 nM
IC50 [2]: 69 nM

CCOc1cc(F)c(Cn2nc(-c3nc(CN4CCCCC4)cc(Nc4ccncc4)n3)c3ccccc32)c(F)c1 [Example 2-15-7, 2-[1-(4-ethoxy-2,6-difluorobenzyl)-1H-indazol-3-yl]-6-(piperidin-1-ylmethyl)-N-(pyridin-4-yl)pyrimidin-4-amine]
IC50 [1, 4]: 7.7 nM
IC50 (HeLa): 3500 nM
IC50 [2]: 150 nM

COCCOc1cc(F)c(Cn2nc(-c3ncc(C4CCN(CC5CC5)CC4)c(Nc4ccnc(C)n4)n3)c3ccccc32)c(F)c1 [Example 2-20-12, 5-[1-(cyclopropylmethyl)piperidin-4-yl]-2-{1-[2,6-difluoro-4-(2-methoxyethoxy)benzyl]-1H-indazol-3-yl}-N-(2-methylpyrimidin-4-yl)pyrimidin-4-amine]
IC50 [1, 3]: 31 nM
IC50 (HeLa): 1200 nM
IC50 [2]: 68 nM

CCOc1cc(F)c(Cn2nc(-c3ncc(OCC(=O)N4CC(F)(F)C4)c(Nc4ccncc4)n3)c3ccccc32)c(F)c1 [Example 3-5-1, 1-(3,3-difluoroazetidin-1-yl)-2-({2-[1-(4-ethoxy-2,6-difluorobenzyl)-1H-indazol-3-yl]-4-(pyridin-4-ylamino)pyrimidin-5-yl}oxy)ethanone, reference compound]
IC50 [1, 3]: 8 nM
IC50 (Bub1): 360 nM
IC50 (HeLa): 3900 nM
